The experiment addresses RocR (Pseudomonas aeruginosa, UniProt Q9HX69). Description: RocR intrinsic fluorescence change (Kd […] by two fits); also non-competitive enzyme inhibition, Ki […]. The class given is binding.

Sequence of RocR (Q9HX69 whole entry): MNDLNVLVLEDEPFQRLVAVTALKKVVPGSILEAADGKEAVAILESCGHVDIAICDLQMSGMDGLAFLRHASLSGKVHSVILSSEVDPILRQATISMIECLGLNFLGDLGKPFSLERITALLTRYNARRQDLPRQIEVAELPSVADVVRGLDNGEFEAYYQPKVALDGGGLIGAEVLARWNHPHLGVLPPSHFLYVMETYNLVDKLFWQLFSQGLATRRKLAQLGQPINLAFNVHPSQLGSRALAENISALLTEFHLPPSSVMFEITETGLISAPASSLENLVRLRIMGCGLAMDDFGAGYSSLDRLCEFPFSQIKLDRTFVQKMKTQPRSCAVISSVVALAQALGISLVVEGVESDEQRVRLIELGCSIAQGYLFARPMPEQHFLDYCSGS

Consider `O=C(CCCn1sc2ccccc2c1=O)Nc1ccc(O)cc1` [compound 1], for which binding was characterised by a dissociation constant (Kd) of 14 ± 2 µM.

One may read the Kd as the equilibrium constant for the complex coming apart.

Source of the values: paper PMC6024209, “Inhibition of P. aeruginosa c-di-GMP phosphodiesterase RocR and swarming motility by a benzoisothiazolinone derivative” (Chemical Science, 2016).
